Assay results: patent publication US20250171437A1 (Agios Pharmaceuticals,Inc., priority 2022, published 2025)

Molecular target: T1, human PAH with the R408W mutation (A375 R408W cells) (Homo sapiens, UniProt P00439, R408W)
T1 construct: expressed in transfected cells
T1 sequence (P00439 1-452 R408W): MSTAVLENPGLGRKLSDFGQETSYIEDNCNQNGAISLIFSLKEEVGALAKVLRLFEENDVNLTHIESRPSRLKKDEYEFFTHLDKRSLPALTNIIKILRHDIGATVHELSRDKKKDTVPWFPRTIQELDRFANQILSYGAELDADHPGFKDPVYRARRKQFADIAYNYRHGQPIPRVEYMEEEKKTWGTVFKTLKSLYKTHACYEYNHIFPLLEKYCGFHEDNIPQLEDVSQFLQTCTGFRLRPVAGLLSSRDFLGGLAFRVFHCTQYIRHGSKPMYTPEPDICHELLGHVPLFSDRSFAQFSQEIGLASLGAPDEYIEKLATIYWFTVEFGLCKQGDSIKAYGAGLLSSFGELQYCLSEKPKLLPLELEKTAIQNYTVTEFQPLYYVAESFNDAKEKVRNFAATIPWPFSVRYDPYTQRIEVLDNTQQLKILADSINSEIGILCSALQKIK
Assay: Cell Based Phenylalanine Flux Assay
Details: A375 R408W cells; 24 hrs with compound, then 20 μM sepiapterin and 800 μM 13C9,15N-Phenylalanine for 4 hours; 13C-Tyrosine by LC-MS; average where tested multiple times
In short: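 Phenylalanine-to-tyrosine flux is measured in A375 cells carrying stable human R408W PAH. After 24 h compound exposure, 13C9,15N-Phe (800 μM) with sepiapterin (20 μM) is supplied for 4 h and media 13C-Tyr is read by LC-MS; AC50s are binned.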

`O=C(c1oc(N2CCOCC2)nc1C(F)F)N1CCc2[nH]cnc2[C@H]1c1nc2cc(F)ccc2o1` [Example 413, (S)-(4-(difluoromethyl)-2-morpholinooxazol-5-yl)(4-(5-fluorobenzo[d]oxazol-2-yl)-6,7-dihydro-1H-imidazo[4,5-c]pyridin-5(4H)-yl)methanone] and `CC(F)(F)c1ncoc1C(=O)N1CCc2[nH]cnc2[C@H]1c1nc2ccc(F)cc2o1` [Example 649, (S)-(4-(1,1-difluoroethyl)oxazol-5-yl)(4-(6-fluorobenzo[d]oxazol-2-yl)-6,7-dihydro-1H-imidazo[4,5-c]pyridin-5(4H)-yl)methanone] cannot be ordered by AC50: 500 to 1000 nM for the first, no more than 500 nM for the second.

Compared with `Cn1nc(C(F)(F)F)nc1C(=O)N1CCc2[nH]cnc2[C@@H]1c1nc2ccccc2o1` [Example 684, (R)-(4-(benzo[d]oxazol-2-yl)-6,7-dihydro-1H-imidazo[4,5-c]pyridin-5(4H)-yl)(1-methyl-3-(trifluoromethyl)-1H-1,2,4-triazol-5-yl)methanone], `CC(C)(O)c1nc(C(F)F)c(C(=O)N2CCc3[nH]cnc3[C@@H]2c2nc3cccc(OC(F)(F)F)c3o2)o1` [Example 530, (R)-(4-(difluoromethyl)-2-(2-hydroxypropan-2-yl)oxazol-5-yl)(4-(7-(trifluoromethoxy)benzo[d]oxazol-2-yl)-6,7-dihydro-1H-imidazo[4,5-c]pyridin-5(4H)-yl)methanone] is lower in AC50: 1000 to 5000 nM for the first, 500 to 1000 nM for the second.

`O=C(c1ocnc1C(F)F)N1CCc2[nH]cnc2[C@H]1c1nc2cccc(Br)c2o1` [Example 461, (S)-(4-(7-bromobenzo[d]oxazol-2-yl)-6,7-dihydro-1H-imidazo[4,5-c]pyridin-5(4H)-yl)(4-(difluoromethyl)oxazol-5-yl)methanone] and `O=C(c1ocnc1C(F)(F)F)N1CCc2[nH]cnc2[C@H]1c1nc2cc(F)ccc2o1` [Example 23, (S)-(4-(5-fluorobenzo[d]oxazol-2-yl)-6,7-dihydro-1H-imidazo[4,5-c]pyridin-5(4H)-yl)(4-(trifluoromethyl)oxazol-5-yl)methanone] cannot be ordered by AC50: no more than 500 nM for the first, no more than 500 nM for the second.

Compared with `O=C(c1nnc(-c2ccc(F)cn2)o1)N1CCc2[nH]cnc2[C@H]1c1nc2cc(F)ccc2o1` [Example 33, (S)-(4-(5-fluorobenzo[d]oxazol-2-yl)-6,7-dihydro-1H-imidazo[4,5-c]pyridin-5(4H)-yl)(5-(5-fluoropyridin-2-yl)-1,3,4-oxadiazol-2-yl)methanone], `CN1CCN(c2cn3ncc(C(=O)N4CCc5[nH]cnc5[C@@H]4c4nc5cc(F)ccc5o4)c3cc2Cl)CC1` [Example 182, (R)-(5-chloro-6-(4-methylpiperazin-1-yl)pyrazolo[1,5-a]pyridin-3-yl)(4-(5-fluorobenzo[d]oxazol-2-yl)-6,7-dihydro-1H-imidazo[4,5-c]pyridin-5(4H)-yl)methanone] is higher in AC50: 500 to 1000 nM for the first, 1000 to 5000 nM for the second.

`Cc1cccc2nc([C@H]3c4nc[nH]c4CCN3C(=O)c3nnc(-c4cnn(C(F)F)c4)o3)oc12` [Example 871, (R)-(5-(1-(difluoromethyl)-1H-pyrazol-4-yl)-1,3,4-oxadiazol-2-yl)(4-(7-methylbenzo[d]oxazol-2-yl)-6,7-dihydro-1H-imidazo[4,5-c]pyridin-5(4H)-yl)methanone] and “(R)-(4-(deuterium)-2-(2-hydroxypropan-2-yl)oxazol-5-yl)(4-fluoro-4-(5-fluorobenzo[d]oxazol-2-yl)-6,7-dihydro-1H-imidazo[4,5-c]pyridin-5(4H)-yl)methanone [Example 906]” cannot be ordered by AC50: 1000 to 5000 nM for the first, no less than 5000 nM for the second.

`O=C(c1ocnc1C(F)(F)F)N1CCc2[nH]cnc2[C@@H]1c1nc2cccc(F)c2o1` [Example 172, (R)-(4-(7-fluorobenzo[d]oxazol-2-yl)-6,7-dihydro-1H-imidazo[4,5-c]pyridin-5(4H)-yl)(4-(trifluoromethyl)oxazol-5-yl)methanone] and `O=C(c1cnn2cc(N3CCN(C4CC4)CC3)ccc12)N1CCc2[nH]cnc2[C@H]1c1nc2cc(F)ccc2o1` [Example 133, (S)-(6-(4-cyclopropylpiperazin-1-yl)pyrazolo[1,5-a]pyridin-3-yl)(4-(5-fluorobenzo[d]oxazol-2-yl)-6,7-dihydro-1H-imidazo[4,5-c]pyridin-5(4H)-yl)methanone] cannot be ordered by AC50: no more than 500 nM for the first, 500 to 1000 nM for the second.

First: O=C(c1cnc(-c2ccccn2)o1)N1CCc2[nH]cnc2[C@@H]1c1nc2cc(F)ccc2o1 [Example 12, (R)-(4-(5-fluorobenzo[d]oxazol-2-yl)-6,7-dihydro-1H-imidazo[4,5-c]pyridin-5(4H)-yl)(2-(pyridin-2-yl)oxazol-5-yl)methanone]
Second: CC(C)(O)c1nc(Br)c(C(=O)N2CCc3[nH]cnc3[C@H]2c2nc3c(F)cccc3o2)o1 [Example 252, (S)-(4-bromo-2-(2-hydroxypropan-2-yl)oxazol-5-yl)(4-(4-fluorobenzo[d]oxazol-2-yl)-6,7-dihydro-1H-imidazo[4,5-c]pyridin-5(4H)-yl)methanone]
The AC50 of the first is higher: 1000 to 5000 nM for the first, no more than 500 nM for the second.

Compared with `CN1CCN(c2ccc3c(C(=O)N4CCc5[nH]cnc5[C@H]4c4nc5cc(F)ccc5o4)cnn3c2)CC1(C)C` [Example 139, (S)-(4-(5-fluorobenzo[d]oxazol-2-yl)-6,7-dihydro-1H-imidazo[4,5-c]pyridin-5(4H)-yl)(6-(3,3,4-trimethylpiperazin-1-yl)pyrazolo[1,5-a]pyridin-3-yl)methanone], `O=C(c1oc(C2(O)CCC2)nc1C(F)(F)F)N1CCc2[nH]cnc2[C@@H]1c1nc2cc(F)ccc2o1` [Example 586, (R)-(4-(5-fluorobenzo[d]oxazol-2-yl)-6,7-dihydro-1H-imidazo[4,5-c]pyridin-5(4H)-yl)(2-(1-hydroxycyclobutyl)-4-(trifluoromethyl)oxazol-5-yl)methanone] is higher in AC50: 500 to 1000 nM for the first, 1000 to 5000 nM for the second.

First: O=C(CCc1nccs1)N1CCc2[nH]cnc2[C@H]1c1nc2c(F)cccc2o1 [Example 397, (S)-1-(4-(4-fluorobenzo[d]oxazol-2-yl)-6,7-dihydro-1H-imidazo[4,5-c]pyridin-5(4H)-yl)-3-(thiazol-2-yl)propan-1-one]
Second: Cn1nc(C(F)(F)F)nc1C(=O)N1CCc2[nH]cnc2[C@@H]1c1nc2cccc(F)c2o1 [Example 280, (R)-(4-(7-fluorobenzo[d]oxazol-2-yl)-6,7-dihydro-1H-imidazo[4,5-c]pyridin-5(4H)-yl)(1-methyl-3-(trifluoromethyl)-1H-1,2,4-triazol-5-yl)methanone]
The AC50 of the first is lower: 500 to 1000 nM for the first, 1000 to 5000 nM for the second.

With `O=C(c1ocnc1C(F)F)N1Cc2[nH]cnc2[C@@H]1c1nc2ccccc2o1` [Example 922, (R)-(4-(benzo[d]oxazol-2-yl)-4,6-dihydropyrrolo[3,4-d]imidazol-5(1H)-yl)(4-(difluoromethyl)oxazol-5-yl)methanone] the AC50 was 1000 to 5000 nM.

Same assay, conditions: A375 cells expressing R408W PAH; 24 hrs with compound, then 20 μM sepiapterin and 800 μM 13C9,15N-Phenylalanine for 4 hours; 13C-Tyrosine by LC-MS; average where tested multiple times

`Cn1cc(-c2ncc(C(=O)N3CCc4[nH]cnc4C3c3nc4ccc(Br)cc4o3)o2)cn1` (stereo not drawn) and `Cc1ccc2nc(C3c4nc[nH]c4CCN3C(=O)c3ocnc3C#N)oc2c1` (stereo not drawn) cannot be ordered by AC50: 1000 to 5000 nM for the first, no less than 5000 nM for the second.

`O=C(c1nncn1C1CC1)N1CCc2[nH]cnc2C1c1nc2cc(F)ccc2o1` (stereo not drawn) and `O=C(c1nncn1C1CC1)N1CCc2[nH]cnc2C1c1nc2c(F)cccc2o1` (stereo not drawn) fall in the same range of AC50: 1000 to 5000 nM for the first, 1000 to 5000 nM for the second.

`Cn1nc(C(F)F)nc1C(=O)N1CCc2[nH]cnc2C1c1nc2cc(F)ccc2o1` (stereo not drawn) and `COCCOc1ccc2c(C(=O)N3CCc4[nH]cnc4C3c3nc4cc(F)ccc4o3)cnn2c1` (stereo not drawn) cannot be ordered by AC50: 1000 to 5000 nM for the first, no less than 5000 nM for the second.

`O=C(CCc1cncs1)N1CCc2[nH]cnc2C1c1nc2c(F)cccc2o1` (stereo not drawn) and `CN(C)CCCOc1ccc2c(C(=O)N3CCc4[nH]cnc4C3c3nc4cc(F)ccc4o3)cnn2c1` (stereo not drawn) cannot be ordered by AC50: no less than 5000 nM for the first, no less than 5000 nM for the second.
